Measurements: PubChem BioAssay (NCI)
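Step 1: Grow cells in 96-well plates. Step 2: Expose to compound for 48 hours at 5 concentrations. Step 3: Interpolate endpoints linearly; if unreached, use highest concentration. GI50 marks 50% less growth. TGI: concentration producing complete growth inhibition.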

Experiments:
Assay in all cases: NCI tumour cell line growth inhibition, 48 h
M14 melanoma = tested on: M14 melanoma
T-47D breast = tested on: T-47D breast
HL-60(TB) leukemia = tested on: HL-60(TB) leukemia
UACC-62 melanoma = tested on: UACC-62 melanoma
PC-3 prostate = tested on: PC-3 prostate
MALME-3M melanoma = tested on: MALME-3M melanoma
TK-10 renal = tested on: TK-10 renal
HS 578T breast = tested on: HS 578T breast
HCC-2998 colon = tested on: HCC-2998 colon
SN12C renal = tested on: SN12C renal
SNB-75 CNS = tested on: SNB-75 CNS
RPMI-8226 leukemia = tested on: RPMI-8226 leukemia
SF-295 CNS = tested on: SF-295 CNS
IGROV1 ovarian = tested on: IGROV1 ovarian
OVCAR-5 ovarian = tested on: OVCAR-5 ovarian
UACC-257 melanoma = tested on: UACC-257 melanoma
OVCAR-3 ovarian = tested on: OVCAR-3 ovarian
SR leukemia = tested on: SR leukemia
NCI-H522 lung = tested on: NCI-H522 lung
NCI-H460 lung = tested on: NCI-H460 lung
OVCAR-4 ovarian = tested on: OVCAR-4 ovarian
CAKI-1 renal = tested on: CAKI-1 renal
786-0 renal = tested on: 786-0 renal
MDA-MB-231 breast = tested on: MDA-MB-231 breast
KM12 colon = tested on: KM12 colon
HOP-62 NSCLC = tested on: HOP-62 NSCLC
K-562 leukemia = tested on: K-562 leukemia
OVCAR-8 ovarian = tested on: OVCAR-8 ovarian
NCI-H23 lung = tested on: NCI-H23 lung

COC(=O)CC1=C(C)/C(=C/c2[nH]c(-c3ccc[nH]3)cc2OC)N=C1C
GI50 (M14 melanoma): 272 nM
TGI (M14 melanoma): 863 nM
GI50 (T-47D breast): 255 nM
TGI (T-47D breast): 1520 nM
GI50 (HL-60(TB) leukemia): 154 nM
TGI (HL-60(TB) leukemia): 882 nM
GI50 (UACC-62 melanoma): 216 nM
TGI (UACC-62 melanoma): 560 nM
GI50 (PC-3 prostate): 210 nM
TGI (PC-3 prostate): 11200 nM
GI50 (MALME-3M melanoma): 720 nM
TGI (MALME-3M melanoma): 2350 nM
GI50 (TK-10 renal): 214 nM
TGI (TK-10 renal): 3410 nM
GI50 (HS 578T breast): 423 nM
TGI (HS 578T breast): 2140 nM
GI50 (HCC-2998 colon): 207 nM
TGI (HCC-2998 colon): 6070 nM
GI50 (SN12C renal): 458 nM
TGI (SN12C renal): 9190 nM
GI50 (SNB-75 CNS): 137 nM
TGI (SNB-75 CNS): 2160 nM
GI50 (RPMI-8226 leukemia): 44.9 nM
TGI (RPMI-8226 leukemia): 499 nM
GI50 (SF-295 CNS): 332 nM
TGI (SF-295 CNS): 1690 nM
GI50 (IGROV1 ovarian): 340 nM
TGI (IGROV1 ovarian): 6690 nM
GI50 (OVCAR-5 ovarian): 195 nM
TGI (OVCAR-5 ovarian): 6060 nM
GI50 (UACC-257 melanoma): 282 nM
TGI (UACC-257 melanoma): 1120 nM
GI50 (OVCAR-3 ovarian): 204 nM
TGI (OVCAR-3 ovarian): 1360 nM
GI50 (SR leukemia): 133 nM
TGI (SR leukemia): 677 nM
GI50 (NCI-H522 lung): 215 nM
TGI (NCI-H522 lung): 1270 nM
GI50 (NCI-H460 lung): 179 nM
TGI (NCI-H460 lung): 2200 nM
GI50 (OVCAR-4 ovarian): 147 nM
TGI (OVCAR-4 ovarian): 4030 nM
GI50 (CAKI-1 renal): 231 nM
TGI (CAKI-1 renal): 2340 nM
GI50 (786-0 renal): 191 nM
TGI (786-0 renal): 723 nM
GI50 (MDA-MB-231 breast): 68.1 nM
TGI (MDA-MB-231 breast): 994 nM
GI50 (KM12 colon): 118 nM
TGI (KM12 colon): 2120 nM
GI50 (HOP-62 NSCLC): 192 nM
TGI (HOP-62 NSCLC): 1120 nM
GI50 (K-562 leukemia): 218 nM
TGI (K-562 leukemia): 10600 nM
GI50 (OVCAR-8 ovarian): 236 nM
TGI (OVCAR-8 ovarian): 1020 nM
GI50 (NCI-H23 lung): 325 nM
TGI (NCI-H23 lung): 3090 nM
